As a reminder, the IC50 is the concentration at which inhibition is half-maximal. Read a high IC50 as weaker potency in that assay.

In the first assay the target is T1, von Hippel-Lindau disease tumor suppressor (Homo sapiens, UniProt P40337). Description: Fluorescence Polarization (FP) VHL Binding Assay. A general note: Fluorescence polarisation rises when a labelled molecule tumbles more slowly, as on binding a larger partner.
T1 sequence (P40337 whole entry): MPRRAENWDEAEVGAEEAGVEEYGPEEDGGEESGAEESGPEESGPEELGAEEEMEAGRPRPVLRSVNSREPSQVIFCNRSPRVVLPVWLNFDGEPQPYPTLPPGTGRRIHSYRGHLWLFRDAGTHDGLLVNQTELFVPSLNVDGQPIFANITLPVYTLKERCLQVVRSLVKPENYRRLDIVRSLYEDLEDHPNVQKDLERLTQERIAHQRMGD
Experimental: The binding of test compounds to the VHL Elongin B/C complex was measured using a fluorescence polarization tracer competition assay. […] A VHL fluorescence polarization probe consisted of a VHL ligand coupled to carboxytetramethylrhodamine (TAMRA); (2S,4R)-N-(2-(2-(3',6'-bis(dimethylamino)-3-oxo-3H-spiro[isobenzofuran-l,9'-xanthene]-5-carboxamido)ethoxy)-4-(4-methylthiazol-5-yl)benzyl)-4-hydroxy-l-((R)-3-methyl-2-(3-methylisoxazol-5-yl)butanoyl)pyrrolidine-2-carboxamide. […] DMSO was dispensed into wells designated for “VHL control” (without compound) wells. The “Assay Buffer” consisted of 50 mM Tris pH 8.0, 120 mM NaCl, 0.005% Nonidet P-40, and 1% DMSO (v/v). […] Assay Buffer was also dispensed into “no VHL control” wells using the same method. […] “Post-assay” fluorescence polarization measurements were made as described for the “pre-assay” fluorescence measurement. Fluorescence polarization was calculated for each sample; taking into account the “pre-assay” fluorescence measurements and subtracting the fluorescence signal of the compound/VHL only (“pre-assay”) measurements from the “post-assay” fluorescence polarization measurements, for each plane of polarization. The data were analyzed using Genedata Screener software and normalized to the “no VHL control” and “VHL control” (without compound). IC50 values were calculated using a four parameter curve fit (Robust method).
As for `CC(C)(C)[C@@H](C(=O)N1C[C@H](O)CC1C(=O)N[C@H](Cc1ccc(-c2ccccc2)cc1)C(N)=O)n1cc(C2CC2)nn1` (stereo not given in full) [WO2022103411, Example S3], the IC50 worked out at 0.15 µM.

Take `CC(=O)NCCOCc1cn([C@H](C(=O)N2C[C@H](O)CC2C(=O)N[C@H](Cc2ccc(-c3ccccc3)cc2)C(N)=O)C(C)(C)C)nn1` (stereo not given in full) [WO2022103411, Example S14]: the IC50 is 0.08 µM.

A further assay has as its target T1, von Hippel-Lindau disease tumor suppressor. Description: VHL HEK-293 BRET Assay. On the technique in general: BRET reads energy transfer from a luciferase to a nearby fluorophore.
Experimental: The VHL NanoBRET Target Engagement Assay analyzes the apparent affinity of test compounds for VHL in cells by competitive displacement of a VHL NanoBRET tracer reversibly bound to a NanoLuc VHL fusion protein stably expressed in the cells. […] 50 nL of control compound (lOmM; parental unlabeled VHL antagonist; see structure below) and 50 nL of DMSO (negative control) were dispensed into the appropriate control wells. DMSO was backfilled to a final volume of 50 nL as required. […] Max Signal control wells consisted of DMSO only treated wells. Minimum Signal control wells contained of 10 uM parental unlabeled VHL antagonist (control compound - see structure below). […] Background Signal control wells were prepared without tracer for background correction steps. […] The raw BRET ratio values were calculated by dividing the acceptor emission value (610 nm) by the donor emission value (460nm) for each sample. To correct for background, the BRET ratio in the absence of tracer (average of no-tracer control samples) was subtracted from the BRET ratio of each sample. Raw BRET units were converted to milliBRET units (mBU) by multiplying each raw BRET value by 1,000. The normalized NanoBRET signal was calculated relative to the Max Signal control wells (DMSO treated control wells) and the Minimum Signal control wells. Percentage inhibition was calculated relative to the Minimum Signal control and Maximum Signal control wells. IC50 values were derived by four parameter curve fitting using the Robust method.
The compound `Cc1ncsc1-c1ccc(C(C)NC(=O)C2C[C@@H](O)CN2C(=O)[C@H](C2C3CC4CC(C3)CC2C4)n2cc(C3CC3)nn2)c(Cl)c1` (stereo not given in full) [WO2022103411, Example S23] returned an IC50 of 0.02 µM.

`CCC(C)(C)[C@@H](C(=O)N1C[C@H](O)CC1C(=O)N[C@H](Cc1ccc(-c2ccccc2)cc1)C(N)=O)n1cc(C2CC2)nn1` (stereo not given in full) [WO2022103411, Example S6] gave an IC50 of 0.1 µM.

In turn, `CC(C)[C@@H](C(=O)N1C[C@H](O)C[C@H]1C(=O)N[C@H](Cc1ccc(-c2ccccc2)cc1)C(N)=O)n1nnc2ccccc21` [WO2022103411, Compound 38] registered an IC50 of 0.3 µM.

Take `CC(C)(C)[C@@H](C(=O)N1C[C@H](O)CC1C(=O)N[C@H](Cc1ccc(-c2ccccc2)cc1)C(N)=O)n1cc(C2CC2)nn1` (stereo not given in full) [WO2022103411, Example S3]: inhibition was half-maximal at 0.15 µM (IC50).

As to `Cc1ncsc1-c1ccc2c(c1)CCCC[C@@H]2NC(=O)[C@@H]1C[C@@H](O)CN1C(=O)[C@@H](n1cc(C2CC2)nn1)C(C)(C)C` [WO2022103411, Compound 52], the IC50 is below 0.005 µM.

As for `CCC(C)[C@@H](C(=O)N1C[C@H](O)CC1C(=O)N[C@H](Cc1ccc(-c2ccccc2)cc1)C(N)=O)n1cc(C2CC2)nn1` (stereo not given in full) [WO2022103411, Example S5], 0.13 µM corresponded to half-maximal inhibition (IC50).

For the compound `Cc1ncsc1-c1ccc([C@H](C)NC(=O)C2C[C@@H](O)CN2C(=O)[C@H](C2C3CC4CC(C3)CC2C4)n2cc(C3CC3)nn2)cc1` (stereo not given in full) [WO2022103411, Example S20], the 50% inhibitory concentration (IC50) is below 0.005 µM.

As for `CCC(C)(C)[C@@H](C(=O)N1C[C@H](O)C[C@H]1C(=O)N[C@@H](C)c1ccc(-c2scnc2C)cc1)n1cc(C2CC2)nn1` [WO2022103411, Example S21], the IC50 is below 0.005 µM.

The compound `Cc1ncsc1-c1ccc2c(c1)CCCC[C@H]2NC(=O)[C@@H]1C[C@@H](O)CN1C(=O)[C@@H](n1cc(C2CC2)nn1)C(C)(C)C` [WO2022103411, Compound 53] had an IC50 of 0.2 µM.

Take `Cc1ncsc1-c1ccc(CNC(=O)[C@@H]2C[C@@H](O)CN2C(=O)[C@@H](n2cc(C3CC3)nn2)C(C)(C)C)cc1` [WO2022103411, Example S24]: the IC50 was 0.01 µM.

Compound `COC(=O)c1nnn([C@@H](C(=O)N2C[C@H](O)C[C@H]2C(=O)N[C@H](Cc2ccc(-c3ccccc3)cc2)C(N)=O)C(C)C)c1C` [WO2022103411, Compound 35] returned an IC50 of 1.62 µM.

As for `Cc1ncsc1-c1ccc(CNC(=O)[C@@H]2C[C@@H](O)CN2C(=O)[C@@H](n2cc(Cc3ccccc3)nn2)C(C)(C)C)cc1` [WO2022103411, Example S27], the IC50 was determined as 0.02 µM.

As for `Cc1ncsc1-c1ccc(CNC(=O)[C@@H]2C[C@@H](O)CN2C(=O)[C@H](C2CCCCC2)n2cc(C3CC3)nn2)cc1` [WO2022103411, Example S25], the IC50 is below 0.005 µM.

`NC(=O)[C@@H](Cc1ccc(-c2ccccc2)cc1)NC(=O)C1C[C@@H](O)CN1C(=O)[C@H](C1CCC1)n1cc(C2CC2)nn1` (stereo not given in full) [WO2022103411, Example S4]: the 50% inhibitory concentration (IC50) amounted to 0.19 µM.

In turn, `Cc1ncsc1-c1ccc(CNC(=O)C2C[C@H](O)CN2C(=O)[C@@H](n2cc(C3(c4cn([C@H](C(=O)N5C[C@H](O)C[C@H]5C(=O)NCc5ccc(-c6scnc6C)cc5)C(C)(C)C)nn4)CC3)nn2)C(C)(C)C)cc1` (stereo not given in full) [WO2022103411, Compound 31] yielded an IC50 of 0.31 µM.

Regarding `COC(=O)c1nnn([C@H](C(=O)N2C[C@H](O)C[C@H]2C(=O)N[C@H](Cc2ccc(-c3ccccc3)cc2)C(N)=O)C(C)C)c1C` [WO2022103411, Compound 34], the IC50 amounted to 6.25 µM.

Consider `C=CC(C)(C)[C@@H](C(=O)N1C[C@H](O)CC1C(=O)N[C@H](Cc1ccc(-c2ccccc2)cc1)C(N)=O)n1cc(C2CC2)nn1` (stereo not given in full) [WO2022103411, Example S7], for which 0.11 µM corresponded to half-maximal inhibition (IC50).

Turning to `CC(=O)NCCOCc1cn([C@H](C(=O)N2C[C@H](O)CC2C(=O)N[C@H](Cc2ccc(-c3ccccc3)cc2)C(N)=O)C(C)(C)C)nn1` (stereo not given in full) [WO2022103411, Example S14], the 50% inhibitory concentration (IC50) worked out at 20.7 µM.

Source of the values: BindingDB's records for patent WO2022103411 (Genentech, 2022).
